Columns and labels:
[1] = Fractional α‐helicity by circular dichroism (CD) spectroscopy; type: physicochemical; details: for fH (exp), measured fractional helicity via CD spectroscopy: 60 μM peptide, 10 mM sodium phosphate buffer pH 7.4, 4 °C, CDSSTR algorithm on DichroWeb
[2] = target: Spike RBD RBD (Severe acute respiratory syndrome coronavirus 2), P0DTC2; assay: MST; details: modification not given

| Molecule | fH (exp), measured fractional helicity via CD spectroscopy [1] [%] | α‐helicity from CD spectra (in words) ([1]; 60 μM, 10 mM sodium phosphate buffer, pH 7.4, 4 °C) | Kd [2] [nM] |
| --- | --- | --- | --- |
| Ac‐βHAsp‐P‐P‐QAKTFLDKFNHEAEDLFYQ‐NH2 [P‐1‐2] | 4 |  |  |
| Ac‐ E QAK AAA DK AA HEAE AAA YQ K ‐NH2 [P‐3‐3] | 42 | pronounced α‐helicity |  |
| Ac‐ E QAKTFLDKFNHEAEDLFYQ K ‐NH2 [P‐2‐3] | 5 |  |  |
| Ac-QAKTFLDKFNHEAEDLFYQ-NH2 [P‐1‐3, N‐acetylated parent peptide, α1 from Gln24 to Gln42] | ≤1 |  |  |
| Ac‐βHAsp‐[ProM‐5]‐QAKTFLDKFNHEAEDLFYQ‐NH2 [P‐1‐1, βHAsp‐ProM‐5 N‐capped peptide of ACE2 α1 Gln24 to Gln42] | 4 |  |  |
| PPEQAKTFLDKFNHEAEDLFYQK [ACE2 alpha1 peptide P-2-2] |  |  | 62 |
| EQAKTFLDKFNHEAEDLFYQK [ACE2 alpha1 peptide P-2-1] |  |  | 1210 |

— paper PMC9350387, “Synthetic α‐Helical Peptides as Potential Inhibitors of the ACE2 SARS‐CoV‐2 Interaction” (Chembiochem, 2022)
